In the NIST ThermoML archive (doi:10.1021/je3007474):
Numbers after ± are expanded uncertainties.

Assays:
[1] = xn = mol fraction of the nth substance listed; settings: 101 kPa, Liquid, x2 = 0; for viscosity: Falling or rolling sphere viscometry; for mass density: Vibrating tube method
[2] = 101 kPa, Liquid; for viscosity: Falling or rolling sphere viscometry; for mass density: Vibrating tube method

| SMILES | viscosity ([1]; 298.15 K) [mPa·s] | mass density ([1]; 298.15 K) [kg/m3] | viscosity ([1]; 303.15 K) [mPa·s] | mass density ([1]; 303.15 K) [kg/m3] | viscosity ([1]; 313.15 K) [mPa·s] | mass density ([1]; 313.15 K) [kg/m3] | viscosity ([1]; 323.15 K) [mPa·s] | mass density ([1]; 323.15 K) [kg/m3] | viscosity ([2]; 298.15 K) [mPa·s] | mass density ([2]; 298.15 K) [kg/m3] | viscosity ([2]; 303.15 K) [mPa·s] | mass density ([2]; 303.15 K) [kg/m3] | viscosity ([2]; 313.15 K) [mPa·s] | mass density ([2]; 313.15 K) [kg/m3] | viscosity ([2]; 323.15 K) [mPa·s] | mass density ([2]; 323.15 K) [kg/m3] | viscosity ([2]; 333.15 K) [mPa·s] | mass density ([2]; 333.15 K) [kg/m3] | viscosity ([2]; 343.15 K) [mPa·s] | mass density ([2]; 343.15 K) [kg/m3] | other results |
| --- | --- | --- | --- | --- | --- | --- | --- | --- | --- | --- | --- | --- | --- | --- | --- | --- | --- | --- | --- | --- | --- |
| C[S+](C)[O-] [dimethyl sulfoxide] + CCCCn1cc[n+](C)c1C.F[B-](F)(F)F | 2.012 ± 0.025 | 1095.74 ± 0.07 | 1.843 ± 0.023 | 1090.73 ± 0.07 | 1.556 ± 0.019 | 1080.69 ± 0.07 | 1.337 ± 0.016 | 1070.66 ± 0.06 | – | – | – | – | – | – | – | – | – | – | – | – | viscosity ([1]; 333.15 K): 1.165 ± 0.014 mPa·s; mass density ([1]; 333.15 K): 1060.63 ± 0.06 kg/m3; viscosity ([1]; 343.15 K): 1.028 ± 0.013 mPa·s; mass density ([1]; 343.15 K): 1050.58 ± 0.06 kg/m3; viscosity ([1]; 353.15 K): 0.917 ± 0.011 mPa·s; mass density ([1]; 353.15 K): 1040.51 ± 0.05 kg/m3 |
| CC#N [acetonitrile] + CCCCn1cc[n+](C)c1C.F[B-](F)(F)F | 0.37 ± 0.005 | 776.55 ± 0.15 | 0.354 ± 0.004 | 771.13 ± 0.15 | 0.327 ± 0.004 | 760.18 ± 0.15 | 0.302 ± 0.004 | 749.11 ± 0.16 | – | – | – | – | – | – | – | – | – | – | – | – | viscosity ([1]; 333.15 K): 0.281 ± 0.004 mPa·s; mass density ([1]; 333.15 K): 737.86 ± 0.16 kg/m3; viscosity ([1]; 343.15 K): 0.262 ± 0.003 mPa·s; mass density ([1]; 343.15 K): 726.43 ± 0.17 kg/m3 |
| C[S+](C)[O-] [dimethyl sulfoxide] | – | – | – | – | – | – | – | – | 2.012 ± 0.025 | 1095.74 ± 0.07 | 1.843 ± 0.023 | 1090.73 ± 0.07 | 1.556 ± 0.019 | 1080.69 ± 0.07 | 1.337 ± 0.016 | 1070.66 ± 0.06 | 1.165 ± 0.014 | 1060.63 ± 0.06 | 1.028 ± 0.013 | 1050.58 ± 0.06 | viscosity ([2]; 353.15 K): 0.917 ± 0.011 mPa·s; mass density ([2]; 353.15 K): 1040.51 ± 0.05 kg/m3 |
| CCCCn1cc[n+](C)c1C.F[B-](F)(F)F [1-butyl-2,3-dimethylimidazolium tetrafluoroborate] | – | – | – | – | – | – | – | – | 650 ± 56 | 1193.19 ± 0.12 | 447 ± 33 | 1189.8 ± 0.12 | 232.9 ± 12 | 1183.02 ± 0.11 | 132.8 ± 4.4 | 1176.38 ± 0.11 | 81.53 ± 1.5 | 1169.82 ± 0.11 | 53.99 ± 0.56 | 1163.26 ± 0.11 | viscosity ([2]; 353.15 K): 37.13 ± 0.46 mPa·s; mass density ([2]; 353.15 K): 1156.71 ± 0.1 kg/m3 |
| CC#N [acetonitrile] | – | – | – | – | – | – | – | – | 0.37 ± 0.005 | 776.55 ± 0.15 | 0.354 ± 0.004 | 771.13 ± 0.15 | 0.327 ± 0.004 | 760.18 ± 0.15 | 0.302 ± 0.004 | 749.11 ± 0.16 | 0.281 ± 0.004 | 737.86 ± 0.16 | 0.262 ± 0.003 | 726.43 ± 0.17 | – |
